The nature of the data set: Plasma pharmacokinetics of GAE after single oral administration (HPLC, non-compartmental). Conditions: 200 mg/kg b.wt oral; for Cmax / AUC(0-t) / Tmax / half-life / AUC: 200 mg/kg; for Kel: in 1/min; for AUC: read-out: AUC0-α (converted). The class given is in vivo, mice. The procedure: The developed method was successfully employed to determine GAE concentration in mouse plasma and tissue samples after single oral administration of GAE at a single dose (200 mg/kg body weight) in GAE and Radiation + GAE (R + GAE) treated group. […] Pharmacokinetic parameter analysis is presented in (Table 2, Table 3).
Black C57BL/6 male mice weighing 28–30 g were maintained at the Institutional Animal Experimental Facility. Animals were fed according to standard chow diet having free access to food and water ad libitum. The environmental condition was maintained at room temperature (22 ± 2 °C), relative humidity (45–60%) and 12 h dark/light cycle controlled facility. In this study, mice were randomly assigned to four different groups (n = 21) i.e untreated control (UC), GAE-treated (GAE), Radiation + GAE (R + GAE), Radiation group (R). Mice fasted overnight with free access to water before being dosed. Isolated GAE from leaves was dissolved with distilled water and ethanol in (7:3 v/v) and administered orally at a dose of 200 mg/kg body weight to GAE-treated and R + GAE treated groups only. The experiment was carried out in accordance to regulation and guideline of the, Committee for the purpose of control and supervision of Experiments on animals (CPCSEA), and study was approved by Institutional Animal Experimental Committee (IAEC), Institute of Nuclear Medicine & Allied Science, Delhi, India.
Group I untreated control (UC), Group II GAE-treated (GAE), Group III Radiation + GAE (R + GAE) and Group IV Radiation (R) exposed. The GAE was administered orally 15 min post irradiation. The whole-body radiation (5 Gy) was carried out using Bhabahtron II, Telecobalt machine, Panacea medical technology, Bangalore. The mice exposed at a dose rate of 0.961 Gy/min at field 35 × 35 cm^2 and the distance maintained from the source was 80 cm.
Blood and tissues samples of mice were collected at 15 min, 30 min, 1 h, 2 h, 4 h, 8 h and 24 h after GAE administration (3mice per time). Blood was obtained from retro orbital plexus of mice and collected in heparinized eppendorf tubes, followed by centrifugation at 2500 g for 15 min. The resulting plasma layer was separated and stored in tubes at −20 °C for further analysis. Tissue samples (brain, heart, liver, kidney, and spleen) were weighed and put into the normal saline solution to remove the blood by blotting on filter paper and were minced and homogenized with physiological saline solution (1:2 w/v) thoroughly in an ice bath. The homogenates were stored at −80 °C until the analysis.
Aliquot of plasma sample (100 µL) dispensed in standing vial deproteinized with ACN (200 µL) containing the IS (100 ng/mL) and centrifuged at 2500 g for 15 min at 4 °C. The supernatant was collected transferred to a clean glass tube, reconstituted with 200 µL mobile phase vortexed mixed for 2 min and centrifuged at 2500 g for 5 min. Following this, a 20 µL aliquot of supernatant was injected into the HPLC system for analysis.
GAE was separated on the high-performance liquid chromatography (HPLC), SPD-10A consisting of binary HPLC pump, ultraviolet detector, and a Rheodyne manual injector equipped with a 20 µl loop (Shimadzu, Japan). Separation was achieved on Kinetex Biphenyl RP 100 Å column (2.6 µm, 150 × 4.6 mm) (Phenomenex, Torrance) installed with phenyl cartridges (Phenomenex, Torrance). The system was controlled using class VP software (Shimadzu, Japan). The chromatographic separation of GAE was in approximately within 10 min, at room temperature by using the isocratic mobile phase mixture of ACN and 1%OPA (30:70, v/v) with pH maintained at 3.3. 20 µL of the samples were injected at a flow rate of 0.5 mL/min and the wavelength 270 nm was used for detection. […]

[1] abbreviates: R + GAE group (60Co-γ 5 Gy, GAE 15 min post irradiation).
The mark [2] stands for this setting: male, C57BL/6, mouse, po, GAE treated group.
Setting [3] is: male, C57BL/6, mouse, po, R + GAE group (60Co-γ 5 Gy, GAE 15 min post irradiation).

Where two headings read alike, the source gives them in different places.

Data on one compound can be found in publication PMC6906394, “Radiomodifying action, Pharmacokinetic and Biodistribution of Ethyl 3, 4, 5-trihydroxybenzoate-Implication in development of radiomitigator” (Scientific Reports, 2019).

The term Cmax denotes the maximum level reached in the sampled fluid or tissue. The term AUC(0-t) denotes the area under the concentration-time curve up to a stated or last time point. For orientation: Tmax means the time from dosing to the highest level. What is called half-life is how long it takes for the measured level to halve.

As to `CCOC(=O)c1cc(O)c(O)c(O)c1` [GAE, Ethyl 3,4,5-trihydroxybenzoate], where the note is “GAE treated group”, the Clearance stood at 0.017 ± 0.0005 mL/min, the Cmax stood at 4390.85 ± 285.20 ng/mL and the Kel came to 0.026 ± 0.003. Under setting [1], the Clearance turned out to be 0.07 ± 0.01 mL/min and the Kel is recorded as 0.025 ± 0.02. Also, under setting [2], the exposure AUC(0-t) is 2920 ng·h/mL, the Tmax is about 15 min, the half-life was found to be 26.5 ± 3.2 min and the AUC was 2930 ng·h/mL. Also, for the setting “male, C57BL/6, mouse, po, GAE treated group, read-out: Cmax”, the Cmax was 4390 ± 285 ng/mL. Under setting [3], the area under the curve AUC(0-t) is 1070 ng·h/mL, the time of peak concentration (Tmax) was about 15 min, the half-life stood at 22.4 ± 3.6 min and the AUC is 1070 ng·h/mL. Moreover, the Cmax (male, C57BL/6, mouse, po, R + GAE group (60Co-γ 5 Gy, GAE 15 min post irradiation), read-out: Cmax) amounted to 3390 ± 78.1 ng/mL.
